Consider 42 molecules from patent US9718790B2, “Triazine derivative and pharmaceutical composition having an analgesic activity comprising the same” (SHIONOGI & CO., LTD., priority 2010, dated 2017).

Usually IC50 stands for the point on the concentration scale where inhibition reaches its midpoint.

Some results are limits rather than exact numbers.

The target in one experiment is human P2X3 receptor (Homo sapiens (Human), UniProt P56373). The experiment is described as follows: Evaluation of human P2X3 receptor inhibitory activity (Fluo-3 calcium fluorescence, FDSS 3000, ATP stimulation).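 Note: stimulus was 50 nM ATP with fluorescence followed for 3 min, and the response per well was peak post-ATP fluorescence divided by the reading at measurement start.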 It counts as cell-based.
Experiment [1] concerns partial sciatic nerve ligation model in rats. The experiment is described as follows: Analgesic effect in a Seltzer model, Evaluation (1): mechanical allodynia, von Frey filaments. It counts as in vivo. Conditions: rat, oral single administration, at 3 hours, read-out: analgesic effect, percent reversal of mechanical allodynia. The source says:
Rats were anaesthetized using isoflurane/O2 inhalation anaesthesia. After induction of anesthesia, the left thigh was shaved. An incision was made in the skin just below the hip bone. The muscle was bluntly dissected to expose the sciatic nerve. One third (⅓) to one half (½) of the sciatic nerve thickness was tightly ligated and the wound was closed. The right thigh is used as a sham-operated control. The right thigh undergoes an identical procedure with the left hind limb, however, the sciatic nerve is not manipulated or ligated.
Two weeks after nerve ligation, the effect on mechanical allodynia was assessed using a series of von Frey filaments. For habituation, the rats were placed into a plastic cage on a wire mesh bottom. The mechanical sensitivity (mechanical threshold) of the hind paws was estimated with a series of von Frey filaments (0.4-20 g). The measurement of mechanical sensitivity of the right and left hind paws was performed to obtain predose mechanical sensitivity. The rats showing thee threshold change from 0.6 to 2 g (in nerve ligated side) and 8 to 15 g (in sham operated side) were used in the experiments. On the day belone the experiment, the rats were evaluated with a series of von Frey filaments to familiarize them with the test procedure. The adopted animal was administrated with the test compounds. The test compounds were homogenized with mortar and pestle and suspended or diluted in 0.5% Methyl Cellulose to prepare 0.1-2.0 mg/mL/kg suspension and orally administered to rat using a syringe attached with a sonde. Post-dose mechanical sensitivities of the right and left hind paws were measured at approximately 1 to 5 hours after drug administration. Percent reversal of mechanical allodynia for each rat was calculated using the following formula. The analgesic effects of the compounds were compared.

[2] abbreviates: C6BU-1 cells stably expressing human P2X3 receptor, Fluo-3 fluorescence, FDSS 3000.
Where [3] appears, read: human P2X3 receptor, Test Example 1.
Where [4] appears, read: C6BU-1 cells stably expressing human P2X3 receptor.

Sequence of human P2X3 receptor (P56373 whole entry): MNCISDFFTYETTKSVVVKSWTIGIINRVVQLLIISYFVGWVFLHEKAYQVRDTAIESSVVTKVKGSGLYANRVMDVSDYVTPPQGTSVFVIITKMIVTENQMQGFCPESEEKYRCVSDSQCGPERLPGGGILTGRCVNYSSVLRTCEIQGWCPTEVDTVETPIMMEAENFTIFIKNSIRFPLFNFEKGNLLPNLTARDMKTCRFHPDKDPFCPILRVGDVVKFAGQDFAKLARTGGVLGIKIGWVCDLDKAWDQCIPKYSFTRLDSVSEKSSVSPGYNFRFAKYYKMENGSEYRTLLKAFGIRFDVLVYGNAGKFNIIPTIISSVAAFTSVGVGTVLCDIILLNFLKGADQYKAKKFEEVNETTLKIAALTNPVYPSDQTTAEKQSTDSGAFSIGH

As for `Cc1ccc(Cn2c(=O)n([C@@H](C)[C@@H](C)C(=O)O)c(=O)[nH]/c2=N\c2ccc(OC(C)C)c(Cl)c2)cc1` [Compound I-0931], the IC50 at human P2X3 receptor (setting [2]) was 0.012 µM. Besides, the inhibition in vivo at 3 mg/kg in experiment [1] was over 30%.

In the case of `O=c1[nH]/c(=N\c2ccc(Oc3ccon3)cc2)n(Cc2ccc(Cl)cc2)c(=O)n1CCO` [Compound I-2292], the IC50 at human P2X3 receptor (setting [3]) was 0.012 µM. The inhibition in vivo at 3 mg/kg in experiment [1] is over 30%.

With `CC(CO)(CO)Cn1c(=O)[nH]/c(=N\c2ccc(Oc3ccon3)cc2)n(Cc2ccc(Cl)cc2)c1=O` [Compound I-2369], the half-maximal inhibitory concentration (IC50) at human P2X3 receptor (setting [3]) was found to be 0.003 µM. Moreover, the inhibition in vivo at 3 mg/kg in experiment [1] was over 30%.

Take `Cc1cc(Oc2ccc(/N=c3\[nH]c(=O)n(C[C@H](O)CO)c(=O)n3Cc3ccc(Cl)cc3)cc2)no1` [Compound I-1757]: the IC50 on human P2X3 receptor (setting [2]) was found to be 0.012 µM. Besides, in experiment [1], the inhibition in vivo at 3 mg/kg was over 30%.

`CCn1c(=O)[nH]/c(=N\c2ccc(Oc3ncc(C(=O)O)s3)cc2)n(Cc2ccc(Cl)cc2)c1=O` [Compound I-2153]: the IC50 at human P2X3 receptor (setting [4]) turned out to be 0.006 µM. Also, the inhibition in vivo at 3 mg/kg in experiment [1] was over 30%.

Turning to `O=c1[nH]/c(=N\c2ccc(OCC3CC3)cc2)n(Cc2ccc(Cl)cc2)c(=O)n1CC(CO)CO` [Compound I-1849], on human P2X3 receptor (setting [2]), the IC50 worked out at 0.007 µM. In experiment [1], the inhibition in vivo at 3 mg/kg was over 30%.

Consider `CCn1c(=O)[nH]/c(=N\c2ccc(Oc3ccc(C(N)=O)nn3)cc2)n(Cc2ccc(Cl)cc2)c1=O` [Compound I-2283], for which the IC50 on human P2X3 receptor (setting [3]) was under 0.004 µM. In addition, the inhibition in vivo at 3 mg/kg in experiment [1] was over 30%.

As for `Cc1cc(/N=c2\[nH]c(=O)n([C@@H](C)[C@@H](C)C(=O)O)c(=O)n2Cc2ccc(Cl)cc2)ccc1OC(C)C` [Compound I-0826], the half-maximal inhibitory concentration (IC50) on human P2X3 receptor (setting [3]) was 0.019 µM. Further, the inhibition in vivo at 3 mg/kg in experiment [1] is over 30%.

With `Cn1c(=O)[nH]/c(=N\c2ccc(Oc3cnc(C#N)cn3)cc2)n(Cc2ccc(Cl)cc2)c1=O` [Compound I-2428], on human P2X3 receptor (setting [3]), the IC50 is 0.005 µM. In experiment [1], the inhibition in vivo at 3 mg/kg was over 30%.

Regarding `O=c1[nH]/c(=N\c2ccc(Oc3ccon3)cc2)n(Cc2ccc(Cl)cc2)c(=O)n1C[C@H](O)CO` [Compound I-2293], the IC50 at human P2X3 receptor (setting [3]) is 0.006 µM. Besides, the inhibition in vivo at 3 mg/kg in experiment [1] is over 30%.

As to `Cc1ccc(Cn2c(=O)n(C[C@H](C)C(=O)O)c(=O)[nH]/c2=N\c2ccc(CC(C)C)c(Cl)c2)cc1` [Compound I-1373], the IC50 at human P2X3 receptor (setting [4]) was 0.004 µM. Moreover, the inhibition in vivo at 3 mg/kg in experiment [1] was over 30%.

Consider `Cn1c(=O)[nH]/c(=N\c2ccc(Oc3cccc(C(=O)O)n3)cc2)n(Cc2ccc(Cl)cc2)c1=O` [Compound I-2272], for which, at human P2X3 receptor (setting [3]), the IC50 was 0.008 µM. Also, the inhibition in vivo at 3 mg/kg in experiment [1] is over 30%.

In the case of `COc1ccc(CN2C(=O)CC[C@@H]2Cn2c(=O)[nH]/c(=N\c3ccc(OC(C)C)c(F)c3)n(Cc3ccc(Cl)cc3)c2=O)cc1` [Compound I-0688], the half-inhibitory concentration (IC50) on human P2X3 receptor (setting [4]) is 0.005 µM.

`CCn1c(=O)[nH]/c(=N\c2ccc(Oc3ccc(S(N)(=O)=O)cc3)cc2)n(Cc2ccc(Cl)cc2)c1=O` [Compound I-1993]: the concentration for half-maximal inhibition (IC50) at human P2X3 receptor (setting [4]) amounted to 0.006 µM.

With `Cc1ccc(Cn2c(=O)n([C@@H](C)[C@@H](C)C(=O)O)c(=O)[nH]/c2=N\c2ccc(OC(C)C)c(C)c2)cc1` [Compound I-0930], the IC50 at human P2X3 receptor (setting [2]) is 0.03 µM.

Regarding `CCCOc1ccc(/N=c2\[nH]c(=O)n(C[C@H](CC)C(=O)O)c(=O)n2Cc2ccc(Cl)cc2)cc1` [Compound I-0890], on human P2X3 receptor (setting [3]), the IC50 came to 0.032 µM.

As for `O=c1[nH]/c(=N\c2ccc(Oc3ncccn3)cc2)n(Cc2ccc(Cl)cc2)c(=O)n1CC(CO)CO` [Compound I-2544], at human P2X3 receptor (setting [3]), the IC50 was determined as 0.011 µM.

As for `Cc1ccc(Oc2ccc(/N=c3\[nH]c(=O)n(CC(=O)O)c(=O)n3Cc3ccc(Cl)cc3)cc2)cn1` [Compound I-1934], the 50% inhibitory concentration (IC50) at human P2X3 receptor (setting [4]) turned out to be 0.198 µM.

For the molecule `CCOc1ccc(/N=c2\[nH]c(=O)n(C[C@@H](C)C(=O)OC)c(=O)n2Cc2ccc(Cl)cc2)cc1Cl` [Compound I-0590], the half-maximal inhibitory concentration (IC50) on human P2X3 receptor (setting [4]) was determined as 0.004 µM.

As to `Cc1ccc(Cn2c(=O)n(CCC(=O)O)c(=O)[nH]/c2=N\c2ccc(OC(C)C)cc2C)cc1` [Compound I-2048], the IC50 on human P2X3 receptor (setting [4]) stood at 0.491 µM.

Take `CCCOc1ccc(/N=c2\[nH]c(=O)n(CC(F)(F)C(=O)OCC)c(=O)n2Cc2ccc(C)cc2)cc1` [Compound I-0859]: the 50% inhibitory concentration (IC50) at human P2X3 receptor (setting [3]) worked out at 0.017 µM.

With `CCn1c(=O)[nH]/c(=N\c2ccc(Oc3ccon3)cc2)n(Cc2ccc(Cl)cc2)c1=O` [Compound I-2357], at human P2X3 receptor (setting [3]), the half-inhibitory concentration (IC50) came to 0.012 µM.

On to `C[C@@H](Cn1c(=O)[nH]/c(=N\c2ccc(CC3CCCC3)cc2)n(Cc2ccc(Cl)cc2)c1=O)C(=O)O` [Compound I-1101], for which the 50% inhibitory concentration (IC50) at human P2X3 receptor (setting [2]) is 0.053 µM.

For `Cc1ccc(Cn2c(=O)n([C@@H](C)[C@@H](C)C(=O)O)c(=O)[nH]/c2=N\c2ccc(OCC3CC3)cc2)cc1` [Compound I-0972], the IC50 at human P2X3 receptor (setting [2]) was determined as 0.038 µM.

Take `COC(=O)[C@H](C)[C@H](C)n1c(=O)[nH]/c(=N\c2ccc(OCC3CC3)c(Cl)c2)n(Cc2ccc(C)cc2)c1=O` [Compound I-0969]: the IC50 on human P2X3 receptor (setting [2]) was determined as 0.047 µM.

With `Cc1ccc(Cn2c(=O)n(C[C@H](C)C(=O)O)c(=O)[nH]/c2=N\c2cnc(OC3CCC3)c(Cl)c2)cc1` [Compound I-1410], the IC50 on human P2X3 receptor (setting [4]) worked out at 0.056 µM.

With `C[C@@H](C(=O)O)[C@H](C)n1c(=O)[nH]/c(=N\c2ccc3oc4c(c3c2)CCCC4)n(Cc2ccc(Cl)cc2)c1=O` [Compound I-1748], the half-maximal inhibitory concentration (IC50) on human P2X3 receptor (setting [2]) came out at 0.236 µM.

On to `CCn1c(=O)[nH]/c(=N\c2ccc(Oc3ccnc(O)n3)cc2)n(Cc2ccc(Cl)cc2)c1=O` [Compound I-2016], for which, at human P2X3 receptor (setting [4]), the IC50 was 0.005 µM.

For the molecule `C=Cc1cc(/N=c2\[nH]c(=O)n(C[C@H](C)C(=O)O)c(=O)n2Cc2ccc(C)cc2)ccc1OCC` [Compound I-1194], the concentration for half-maximal inhibition (IC50) at human P2X3 receptor (setting [4]) was determined as 0.031 µM.

As to `Cc1ccc(Cn2c(=O)n(C[C@H](C)C(=O)O)c(=O)[nH]/c2=N\c2ccc(OCC(C)(C)C)cc2)cc1` [Compound I-1064], the IC50 at human P2X3 receptor (setting [2]) came out at 0.257 µM.

As to `COC(=O)[C@@H](C)Cn1c(=O)[nH]/c(=N\c2ccc(/C=C/C3CC3)cc2)n(Cc2ccc(C)cc2)c1=O` [Compound I-1193], the 50% inhibitory concentration (IC50) on human P2X3 receptor (setting [4]) came out at 0.04 µM.

As to `COC(=O)[C@@H](C)Cn1c(=O)[nH]/c(=N\c2ccc3[nH]c(C)cc3c2)n(Cc2ccc(Cl)cc2)c1=O` [Compound I-0692], the IC50 at human P2X3 receptor (setting [4]) was 0.029 µM.

With `O=c1[nH]/c(=N\c2ccc(Oc3ccsn3)cc2)n(Cc2ccc(Cl)cc2)c(=O)n1C[C@H](O)CO` [Compound I-2530], the half-maximal inhibitory concentration (IC50) at human P2X3 receptor (setting [3]) stood at 0.016 µM.

`Cn1c(=O)[nH]/c(=N\c2ccc(Oc3ccc(C(N)=O)cn3)cc2)n(Cc2ccc(Cl)cc2)c1=O` [Compound I-2407]: the IC50 on human P2X3 receptor (setting [3]) turned out to be 0.009 µM.

Consider `CCOC(=O)C1(COc2ccc(/N=c3\[nH]c(=O)n(CC)c(=O)n3Cc3ccc(Cl)cc3)cc2)CC1` [Compound I-2014], for which the IC50 on human P2X3 receptor (setting [4]) was determined as 0.36 µM.

In the case of `COC(=O)c1cncc(Oc2ccc(/N=c3\[nH]c(=O)n(C)c(=O)n3Cc3ccc(C)cc3)cc2)n1` [Compound I-2468], the IC50 on human P2X3 receptor (setting [3]) was 0.02 µM.

For the molecule `CCn1c(=O)[nH]/c(=N\c2ccc(Oc3cncc(C(=O)O)c3)cc2)n(CC2CCC3(CC2)CC3)c1=O` [Compound I-2175], the IC50 on human P2X3 receptor (setting [4]) turned out to be 0.013 µM.

As to `CCC(=O)Nc1cc(Oc2ccc(/N=c3\[nH]c(=O)n(CC)c(=O)n3Cc3ccc(Cl)cc3)cc2)ccn1` [Compound I-2217], the IC50 on human P2X3 receptor (setting [4]) was found to be 0.006 µM.

On to `CCn1c(=O)[nH]/c(=N\c2ccc(Oc3ccc(S(N)(=O)=O)cc3)cc2)n(Cc2ccc(C)cc2)c1=O` [Compound I-2032], for which the IC50 on human P2X3 receptor (setting [4]) was determined as 0.004 µM.

With `CC[C@@H](C)Oc1ccc(/N=c2\[nH]c(=O)n(CCC(=O)O)c(=O)n2Cc2ccc(C)cc2)cc1C` [Compound I-1029], the concentration for half-maximal inhibition (IC50) on human P2X3 receptor (setting [2]) turned out to be 0.035 µM.

For the molecule `O=C(O)Cn1c(=O)[nH]/c(=N\c2ccc(Oc3nccs3)cc2)n(Cc2ccc(Cl)cc2)c1=O` [Compound I-2623], on human P2X3 receptor (setting [3]), the IC50 was determined as 0.506 µM.

Consider `Cc1cc(/N=c2\[nH]c(=O)n(Cc3cccnc3OCCOC3CCCCO3)c(=O)n2Cc2ccc(Cl)cc2)ccc1OC(C)C` (stereo not drawn) [Compound I-0714], for which the IC50 at human P2X3 receptor (setting [4]) was 0.03 µM.
